# Source: US6140091A, “Anti-idiotype vaccines to elicit catalytic antibodies” (Boston Biomedical Research Institute, priority 1998, dated 2000)
# Key:
# [1] = system: mouse myeloma catalytic antibody MOPC 167 (IgA); assay: MOPC 167 catalyzed acetylthiocholine hydrolysis (esterase activity, Ellman's reagent); format: biochemical; settings: acetylthiocholine as substrate; analog concentration not given
# Source text: It was recognized that the phosphocholine moiety might serve as a transition state analog for ester hydrolysis according to the scheme shown in FIG. 5. MOPC 167 was therefore tested for esterase activity using acetylthiocholine as a substrate and Ellman's reagent (E-ss-E) for the detection of thiol production (Izadyar et al., Proceedings of the National Academy of Sciences of the United States of America 90: 8876-80 (1993)).
# Analysis of the Lineweaver-Burk plot for MOPC 167 catalyzed acetylthiocholine hydrolysis (FIG. 7) gave a Michaelis constant, km =627 μM and catalytic constant, kcat =0.25 min^-1 which were close to the values measured for carbonate ester hydrolysis (Pollack et al., Science 234: 1570-1573 (1986)). However, since spontaneous hydrolysis of this substrate is low, kuncat =4×10^-5 min^-1, the kcat /kuncat =6,000 is about 10-fold greater than that recorded for MOPC 167 catalysis of the carbonate ester reaction. That rate enhancement should be increased by using idiotypic mimicry.
# [2] = system: MOPC 167 catalytic antibody (binding of anti-idiotype antibody 4G4); assay: Competitive ELISA using the free transition state analog: binding of anti-Id 4G4 to MOPC 167; set-up: species or system mouse; settings: 10 mM TS analog present
# Description: (§1) The first competitive ELISA uses the MOPC 167 catalytic antibody adsorbed onto microtitre plate wells. This assay measures the blocking effect of the p-nitrophenylphosphorylcholine transition state analog on the binding of anti-idiotype antibodies to MOPC 167 (FIG. 2, A versus B).
# (§2) A true combining site-reactive anti-idiotype antibody will be prevented from interacting with MOPC 167 if this assay is performed in the presence of an excess of the transition state analog because that analog will preoccupy the catalytic combining site (FIG. 2, B). Since the anti-idiotype is blocked from attaching to MOPC 167 and will subsequently wash away, a reduced signal is obtained after the peroxidase-labeled, γ-specific anti-mouse IgG reagent and its substrate are added (compare FIG. 2, A, unblocked control and B, transition state analog blockade).
# (§3) Binding of 4G4 and 1F1 to MOPC 167 was inhibited by 67% and 70% respectively when 10 mM p-nitrophenylphosphorylcholine TS analog was present.
# [3] = system: MOPC 167 catalytic antibody (binding of anti-idiotype antibody 1F1); assay: Competitive ELISA using the free transition state analog: binding of anti-Id 1F1 to MOPC 167; set-up: species or system mouse; settings: 10 mM TS analog present
# Description: as §1, §2, §3
# [4] = biological target: mouse myeloma catalytic antibody MOPC 167 (IgA); settings: from Pollack et al., Science 234: 1570-1573 (1986); cited from earlier work
smiles,measurement,setting,value
C[N+](C)(C)CCOP(=O)([O-])Oc1ccc([N+](=O)[O-])cc1 [p-nitrophenylphosphorylcholine],blockage of esterase activity by the non-cleavable transition state analog,[1],almost completely blocked
same,inhibition of binding of 4G4 to MOPC 167,[2],67%
same,inhibition of binding of 1F1 to MOPC 167,[3],70%
same,affinity Ka,[4],~ 10^6 M^-1
